The NIST ThermoML archive (doi:10.1021/je201211f)

Assays:
[1] = refractive index (Na D-line) (dimensionless); details: 298.15 K; 101.33 kPa; Liquid; Standard Abbe refractometry
[2] = 298.15 K, 101.33 kPa, Liquid; for viscosity: Capillary tube (Ostwald / Ubbelohde) method; for mass density: Vibrating tube method
[3] = xn = mol fraction of the nth substance listed; details: 101 kPa, Liquid; for mass density: Vibrating tube method; for viscosity: Capillary tube (Ostwald / Ubbelohde) method
[4] = refractive index (Na D-line) (dimensionless); xn = mol fraction of the nth substance listed; details: 298.15 K, 101 kPa, Liquid

Cc1ccccc1C [1,2-dimethylbenzene]
Details	mass density [kg/m3]	refractive index	viscosity [mPa·s]
[1]	–	1.5024	–
[2]	875.57	–	0.757

Cc1ccccc1C [1,2-dimethylbenzene] + CC(=O)O
[3]
Details	mass density, 293.15 K [kg/m3]	mass density, 298.15 K [kg/m3]	mass density, 303.15 K [kg/m3]	viscosity, 298.15 K [mPa·s]
x2 = 0.0479	882.96	878.72	874.46	–
x2 = 0.0852	–	–	–	0.7491
x2 = 0.1264	888.76	884.42	880.07	–
x2 = 0.1881	–	–	–	0.7412
x2 = 0.2399	898.21	893.74	889.26	–
x2 = 0.2447	–	–	–	0.7448
x2 = 0.2632	900.31	895.82	891.31	–
x2 = 0.3036	904.17	899.62	895.06	–
x2 = 0.3206	–	–	–	0.7457
x2 = 0.3894	–	–	–	0.7476
x2 = 0.4089	915.71	911.04	906.34	–
x2 = 0.4323	918.49	913.77	909.03	–
x2 = 0.4729	–	–	–	0.7532
x2 = 0.479	924.47	919.7	914.91	–
x2 = 0.5609	935.9	930.9	926.08	–
x2 = 0.5694	–	–	–	0.7667
x2 = 0.6332	947.71	942.68	937.66	–
x2 = 0.6388	–	–	–	0.7838
x2 = 0.7151	–	–	–	0.8113
x2 = 0.7184	964.07	958.92	953.75	–
x2 = 0.7912	980.62	975.33	970.03	–
x2 = 0.8031	–	–	–	0.8592
x2 = 0.8814	1005.53	1000.08	994.74	–
x2 = 0.8817	–	–	–	0.9274
x2 = 0.9589	–	–	–	1.035
x2 = 0.9652	1034.87	1029.28	1023.69	–

[4]
Details	refractive index
x2 = 0.0852	1.4965
x2 = 0.1881	1.4875
x2 = 0.2447	1.4816
x2 = 0.3206	1.4747
x2 = 0.3894	1.4672
x2 = 0.4729	1.4579
x2 = 0.5569	1.4472
x2 = 0.636	1.4363
x2 = 0.7151	1.424
x2 = 0.8031	1.4099
x2 = 0.8817	1.3951
x2 = 0.9589	1.379

Cc1cccc(C)c1 [1,3-dimethylbenzene]
Details	mass density [kg/m3]	refractive index	viscosity [mPa·s]
[1]	–	1.4944	–
[2]	859.88	–	0.589
